Assay results reported in patent US12653189B2, “Herbicidal compositions comprising glyphosate” (BASF SE, priority 2023, dated 2026).

Key:
Experiment in all cases: Post-emergence application in field trials
Assay type in all cases: in vivo
[1] = tested on: AMAPA (Amaranthus palmeri); settings: Glyphosate (EPSPS) resistant AMAPA, height 5-23 cm; A-1 50 g ai/ha, B-6 840 g ai/ha; 21 DAT; water volume 140 l/ha; 1% v/v MSO + 2.5% v/v AMS
Protocol: (§1) In the examples below, using the method of S. R. Colby (1967) “Calculating synergistic and antagonistic responses of herbicide combinations”, Weeds 15, p. 22ff., the value E, which is expected if the activity of the individual active compounds is only additive, was calculated:
(§2) [formula] • where • X=percent activity using active herbicide A at an application rate a; • Y=percent activity using active glyphosate at an application rate b; • E=expected activity (in %) by A+B at application rates a+b.
(§3) For 3- and 4-component mixtures (examples 3-5) the synergistic response was calculated as described in: Ferry, Nancy; Stanley, Bruce H.; and Armel, Gregory (2005). “DESIGN AND ANALYSIS OF BIOLOGICAL ASSAYS OF MIXTURES,” Conference on Applied Statistics in Agriculture. https://doi.org/10.4148/2475-7772.1133. According to this publication, the Colby calculation can be generalized to a third mixing partner, Z, employing the following formula: […]
(§4) If the value found experimentally is higher than the value E calculated according to Colby, a synergistic effect is present.
(§5) On field test sites, natural weed infestation or seeded weeds were treated post-emergence of the weeds.
(§6) In the field trials, the weedy plants were treated as indicated below.
(§7) Herbicide A-1 (342 g/I), glyphosate (480 g/I or 575 g/l) and optional herbicide C were, together with addition of 0.5% v/v MSO (methylated seed oil) as adjuvant (unless indicated otherwise), formulated in water as distribution medium as indicated and sprayed with commercial flat fan nozzles.
(§8) In the following experiments, the herbicidal activity for the individual herbicidal compositions (solo and mixture applications) was assessed at the indicated days after treatment (DAT). The assessments for the damage on undesired weeds caused by the composition was carried out using a scale from 0 to 100%, compared to the untreated control plants. Here, 0 means no damage and 100 means complete destruction of the plants.

[2] = tested on: DIGIN = TRCIN (Digitaria insularis); settings: height 20-30 cm, A-1 50 g ai/ha, B-6 1080 g ai/ha, 7 DAT, water volume 200 l/ha, 0.5% v/v MSO
Protocol: as §1, §2, §3, §4, §5, §6, §7, §8

IPOTR (Ipomoea triloba) = settings: B-6 1080 g ai/ha, 21 DAT, water volume 200 l/ha, 0.5% v/v MSO
Protocol: as §1, §2, §3, §4, §5, §6, §7, §8

ZEAMX (Zea mays (maize)) = settings: glyphosate-tolerant volunteer corn RB 9006 PRO 2 (ZEAMX), growth stage 18; A-1 25 g ai/ha, B-6 1080 g ai/ha; 21 DAT; water volume 200 l/ha; 0.5% v/v MSO
Protocol: as §1, §2, §3, §4, §5, §6, §7, §8

[3] = tested on: BRADC (Brachiaria decumbens); settings: A-1 50 g ai/ha, B-6 1080 g ai/ha, 21 DAT, water volume 100 l/ha, 0.5% v/v MSO
Protocol: as §1, §2, §3, §4, §5, §6, §7, §8

[4] = tested on: SPCHI (Spermacoce hispida); settings: height 25 cm, A-1 25 g ai/ha, B-6 1080 g ai/ha, 21 DAT, water volume 100 l/ha, 0.5% v/v MSO
Protocol: as §1, §2, §3, §4, §5, §6, §7, §8

[5] = tested on: AMARE (Amaranthus retroflexus)
Protocol: as §1, §2, §3, §4, §5, §6, §7, §8

[6] = tested on: GLXMA (Glycine max (soybean)); settings: glyphosate-tolerant volunteer soybean M 6210 IPRO (GLXMA), growth stage 18; A-1 25 g ai/ha, B-6 1080 g ai/ha; 21 DAT; water volume 200 l/ha; 0.5% v/v MSO
Protocol: as §1, §2, §3, §4, §5, §6, §7, §8

ELEIN (Eleusine indica) = settings: growth stage 23-25, height 3-5 cm, A-1 25 g ai/ha, B-6 1080 g ai/ha, 20 DAT, water volume 200 l/ha, 0.5% v/v MSO
Protocol: as §1, §2, §3, §4, §5, §6, §7, §8

[7] = tested on: COMBE (Commelina benghalensis); settings: B-6 1080 g ai/ha, 21 DAT, water volume 200 l/ha, 0.5% v/v MSO
Protocol: as §1, §2, §3, §4, §5, §6, §7, §8

PANMA (Panicum maximum) = settings: A-1 25 g ai/ha, B-6 1080 g ai/ha, 21 DAT, water volume 100 l/ha, 0.5% v/v MSO
Protocol: as §1, §2, §3, §4, §5, §6, §7, §8

[8] = tested on: ECHCG (Echinocloa crus-galli); settings: growth stage 23-30, height 15-20 cm, water volume 200 l/ha, 0.25% v/v MSO
Protocol: as §1, §2, §3, §4, §5, §6, §7, §8

AMATU = settings: growth stage 19, height 10-20 cm, A-1 50 g ai/ha, B-6 840 g ai/ha, 23 DAT, water volume 140 l/ha, 1% v/v MSO + 2.5% v/v AMS
Protocol: as §5, §6, §7, §8

[9] = tested on: HORVW (Hordeum vulgare (barley)); settings: HORVW volunteer crop, growth stage 23-29, height 20-25 cm; A-1 + C-4 12.5 + 12.5, B-6 840, C-1 12.5 g ai/ha; 7 DAT; water volume 200 l/ha; 0.25% v/v MSO
Protocol: as §1, §2, §3, §4, §5, §6, §7, §8

[10] = growth stage 19, height 10-20 cm, A-1 50 g ai/ha, B-6 840 g ai/ha, 23 DAT, water volume 140 l/ha, 1% v/v MSO + 2.5% v/v AMS
[11] = ECHCG, A-1 12.5, B-6 840, C-1 12.5 g ai/ha, 7 DAT
[12] = ECHCG, A-1 12.5, B-6 840, C-1 12.5 g ai/ha, 28 DAT
[13] = ECHCG, A-1 12.5, B-6 840, C-4 12.5 g ai/ha, 7 DAT
[14] = Table 5.1: ECHCG, A-1 + C-1 12.5 + 12.5, B-6 840, C-4 12.5 g ai/ha, 7 DAT
[15] = Table 5.2: ECHCG, A-1 + C-4 12.5 + 12.5, B-6 840, C-1 12.5 g ai/ha, 7 DAT
[16] = growth stage 32, height 12 cm, A-1 + B-6 12.5 + 840, C-1 12.5, C-4 12.5 g ai/ha, 42 DAT, water volume 200 l/ha, 0.25% v/v MSO

Structure (SMILES)	% Herbicidal activity [1]	% Herbicidal activity [2]	% Herbicidal activity (IPOTR (Ipomoea triloba); A-1 25 g ai/ha)	% Herbicidal activity (IPOTR (Ipomoea triloba); A-1 50 g ai/ha)	% Herbicidal activity (ZEAMX (Zea mays (maize)))	% Herbicidal activity [3]	% Herbicidal activity [4]	% Herbicidal activity [5, 10]	% Herbicidal activity [6]	% Herbicidal activity (ELEIN (Eleusine indica))	% Herbicidal activity ([7]; A-1 25 g ai/ha)	% Herbicidal activity ([7]; A-1 50 g ai/ha)	% Herbicidal activity (PANMA (Panicum maximum))	% Herbicidal activity [8, 11]	% Herbicidal activity [8, 12]	% Herbicidal activity [8, 13]	% Herbicidal activity (AMATU)	% Herbicidal activity [9]	% Herbicidal activity [8, 14]	% Herbicidal activity [8, 15]	further results
CCOC(=O)COc1ccccc1Oc1nc(-n2c(=O)cc(C(F)(F)F)n(C)c2=O)c(F)cc1Cl [A-1, ethyl 2-[2-[[3-chloro-5-fluoro-6-[3-methyl-2,6-dioxo-4-(trifluoromethyl)pyrimidin-1-yl]-2-pyridyl]oxy]phenoxy]acetate]	74%	58%	82%	88%	53%	71%	30%	73%	93%	82%	60%	82%	73%	30%	20%	30%	73%	–	–	–	–
O=C(O)CNCP(=O)(O)O [B-6, glyphosate-potassium]	10%	2%	30%	30%	0%	75%	20%	50%	0%	68%	30%	30%	75%	70%	94%	70%	50%	80%	70%	70%	–
CC(C)N(C)S(=O)(=O)NC(=O)c1cc(-n2c(=O)cc(C(F)(F)F)n(C)c2=O)c(F)cc1Cl [C-1, saflufenacil]	–	–	–	–	–	–	–	–	–	–	–	–	–	20%	20%	–	–	0%	–	20%	% Herbicidal activity [5, 16]: 55%
C#CCN1C(=O)C(F)(F)Oc2cc(F)c(-n3c(=O)n(C)c(=S)n(C)c3=O)cc21 [C-4, trifludimoxazin]	–	–	–	–	–	–	–	–	–	–	–	–	–	–	–	20%	–	–	20%	–	% Herbicidal activity [5, 16]: 45%
